Experimental data reported in US20230265151A1, “GIP/GLP1 CO-AGONIST COMPOUNDS” (priority 2020, published 2023).
Read-outs that look alike come from different tables or passages of the source.

Tests used:
[1] = biological target: T1, human GLP-1 receptor (hGLP-1R) (Homo sapiens, UniProt P43220); experiment: [125I]-GLP-1 binding, SPA with membranes of HEK293 cells expressing hGLP-1R; conditions: human GLP-1R; geometric mean (SEM, n); read-out: Binding Affinity Ki, nM (SEM, n) hGLP-1R
T1 construct: expressed in transfected cells; crude membranes
T1 sequence (P43220 24-463): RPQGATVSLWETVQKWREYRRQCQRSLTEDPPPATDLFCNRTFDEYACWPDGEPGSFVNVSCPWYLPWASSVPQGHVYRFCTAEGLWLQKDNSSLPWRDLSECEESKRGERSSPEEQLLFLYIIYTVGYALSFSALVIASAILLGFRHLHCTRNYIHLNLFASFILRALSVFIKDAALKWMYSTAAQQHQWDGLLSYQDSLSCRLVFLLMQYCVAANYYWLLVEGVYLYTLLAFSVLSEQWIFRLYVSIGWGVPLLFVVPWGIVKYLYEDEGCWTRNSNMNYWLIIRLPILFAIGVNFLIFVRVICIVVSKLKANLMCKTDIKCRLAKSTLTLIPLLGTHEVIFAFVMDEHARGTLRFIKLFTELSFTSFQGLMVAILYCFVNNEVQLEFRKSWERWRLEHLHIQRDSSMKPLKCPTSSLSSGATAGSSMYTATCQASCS

[2] = biological target: T2, human GIP receptor (hGIPR) (Homo sapiens, UniProt P48546); experiment: [125I]-GIP binding, SPA with membranes of CHO cells expressing hGIPR; conditions: human GIPR; geometric mean (SEM, n); read-out: Binding Affinity Ki, nM (SEM, n) hGIPR
T2 construct: expressed in transfected cells; crude membranes
T2 sequence (P48546 22-466): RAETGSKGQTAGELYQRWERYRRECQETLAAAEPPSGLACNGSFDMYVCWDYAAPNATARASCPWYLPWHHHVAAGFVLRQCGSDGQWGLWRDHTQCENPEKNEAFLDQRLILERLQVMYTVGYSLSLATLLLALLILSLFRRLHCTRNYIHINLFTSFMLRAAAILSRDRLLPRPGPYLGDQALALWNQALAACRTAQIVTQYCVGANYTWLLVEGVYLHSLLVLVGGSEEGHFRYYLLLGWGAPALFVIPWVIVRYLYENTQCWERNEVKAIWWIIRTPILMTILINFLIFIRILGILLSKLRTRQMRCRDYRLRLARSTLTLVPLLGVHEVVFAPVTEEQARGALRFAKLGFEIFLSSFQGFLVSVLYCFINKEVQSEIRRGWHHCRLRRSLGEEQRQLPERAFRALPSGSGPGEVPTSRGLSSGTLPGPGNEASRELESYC

hGIPR = biological target: T3, hGIPR (Homo sapiens, UniProt P48546); experiment: Functional cAMP formation (HTRF) in HEK-293 clonal cells expressing hGIPR, 0.1% bovine casein, without or with 1.0% human serum albumin; format: cell-based; conditions: 37° C.; for EC50: cAMP, read-out: hGIPR EC50, nM (SEM, n); for Emax: HEK293, cAMP, percent of maximal response to GIP(1-42)NH2, read-out: hGIPR Emax, % ± SEM
T3 construct: expressed in transfected cells
T3 sequence (P48546 22-466): T2 sequence (P48546 22-466)
Outline: (§1)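 Readings of the HTRF 665/620 nm ratio, which falls as cAMP rises, were converted to nM cAMP using a standard curve after 30 min peptide exposure at 37° C.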

hGCGR = biological target: T4, hGCGR (Homo sapiens, UniProt P47871); experiment: Functional cAMP formation (HTRF) in HEK-293 clonal cells expressing hGCGR, 0.1% bovine casein, without or with 1.0% human serum albumin; format: cell-based; conditions: cAMP, 37° C., read-out: hGCGR EC50, nM (SEM, n)
T4 construct: expressed in transfected cells
T4 sequence (P47871 26-477): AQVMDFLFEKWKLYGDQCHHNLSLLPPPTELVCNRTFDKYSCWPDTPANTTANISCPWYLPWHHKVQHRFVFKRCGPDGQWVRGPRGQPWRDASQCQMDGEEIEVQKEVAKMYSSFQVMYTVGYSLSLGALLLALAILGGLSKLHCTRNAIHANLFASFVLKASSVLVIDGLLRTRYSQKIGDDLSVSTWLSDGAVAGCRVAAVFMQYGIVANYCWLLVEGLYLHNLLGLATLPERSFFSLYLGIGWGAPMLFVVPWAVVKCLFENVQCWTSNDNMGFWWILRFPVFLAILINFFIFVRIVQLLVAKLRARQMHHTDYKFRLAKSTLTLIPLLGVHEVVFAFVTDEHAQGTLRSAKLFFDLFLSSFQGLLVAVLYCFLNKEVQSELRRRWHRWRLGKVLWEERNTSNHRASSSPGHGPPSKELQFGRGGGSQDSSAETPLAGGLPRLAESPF
Outline: as §1

hGLP-1R = hGLP-1R (Homo sapiens, UniProt P43220); experiment: Functional cAMP formation (HTRF) in HEK-293 clonal cells expressing hGLP-1R, 0.1% bovine casein, without or with 1.0% human serum albumin; format: cell-based; set-up: expressed in transfected cells; conditions: 37° C.; for Emax: HEK293, cAMP, percent of maximal response to GLP-1(7-36)NH2, read-out: hGLP-1R Emax, % ± SEM; for EC50: cAMP, 0.1% bovine casein (no human serum albumin), geometric mean, read-out: hGLP-1R EC50, nM (SEM, n)
Sequence of hGLP-1R (P43220 24-463): as the sequence (P43220 24-463) above
Outline: as §1

[3] = 0.1% bovine casein (no human serum albumin), geometric mean
[4] = 0.1% bovine casein and 1.0% human serum albumin, geometric mean (SEM, n)
[5] = 0.1% bovine casein and 1.0% human serum albumin
[6] = 0.1% bovine casein, arithmetic mean

Row | SMILES | Ki [1] [nM] | Ki [2] [nM] | EC50 (hGIPR; [3]) [nM] | EC50 (hGCGR; [3]) [nM] | EC50 (hGCGR; [4]) [nM] | Emax (hGLP-1R; [5]) [%] | Emax (hGLP-1R; [6]) [%] | EC50 (hGLP-1R) [nM] | Emax (hGIPR; [5]) [%] | EC50 (hGIPR; [4]) [nM] | Emax (hGIPR; [6]) [%]
1 | CC[C@H](C)[C@H](NC(=O)[C@H](CC(C)C)NC(=O)[C@](C)(Cc1ccc(O)cc1)NC(=O)[C@H](CCCCNC(=O)CC[C@H](NC(=O)COCCOCCNC(=O)COCCOCCNC(=O)CC[C@H](NC(=O)CCCCCCCCCCCCC(=O)O)C(=O)O)C(=O)O)NC(=O)[C@@H](NC(=O)[C@H](Cc1ccccc1)NC(=O)[C@H](CCCN)NC(=O)C(C)(C)NC(=O)[C@H](CCC(N)=O)NC(=O)[C@H](C)NC(=O)[C@H](CCC(N)=O)NC(=O)[C@H](CCCN)NC(=O)[C@H](CC(=O)O)NC(=O)[C@H](CC(C)C)NC(=O)[C@](C)(CC(C)C)NC(=O)[C@@H](NC(=O)C(C)(C)NC(=O)[C@H](Cc1ccncc1)NC(=O)[C@H](CC(=O)O)NC(=O)[C@H](CO)NC(=O)[C@@H](NC(=O)[C@](C)(Cc1ccccc1F)NC(=O)[C@@H](NC(=O)CNC(=O)[C@H](CCC(=O)O)NC(=O)C(C)(C)NC(=O)[C@@H](N)Cc1ccc(O)cc1)[C@@H](C)O)[C@@H](C)O)[C@@H](C)CC)[C@@H](C)CC)C(=O)N[C@@H](CCCCNC(=O)CC[C@H](NC(=O)COCCOCCNC(=O)COCCOCCNC(=O)CC[C@H](NC(=O)CCCCCCCCCCCCC(=O)O)C(=O)O)C(=O)O)C(=O)NCC(=O)NCC(=O)N1CCC[C@H]1C(=O)N[C@@H](CO)C(=O)N[C@@H](CO)C(=O)NCC(=O)N[C@@H](C)C(=O)N1CCC[C@H]1C(=O)N1CCC[C@H]1C(=O)N1CCC[C@H]1C(=O)N[C@@H](CO)C(N)=O [Example 482] | 0.254 | 0.0277 | 0.0158 | > 9950 | > 9950 | 110 | 118 | 0.169 | – | – | –
2 | CC[C@H](C)[C@H](NC(=O)[C@H](CC(C)C)NC(=O)[C@](C)(Cc1ccc(O)cc1)NC(=O)[C@H](CCCCNC(=O)COCCOCCNC(=O)CC[C@H](NC(=O)COCCOCCNC(=O)CC[C@H](NC(=O)CCCCCCCCCCCCC(=O)O)C(=O)O)C(=O)O)NC(=O)[C@@H](NC(=O)[C@H](Cc1ccccc1)NC(=O)[C@H](CCCN)NC(=O)C(C)(C)NC(=O)[C@H](CCC(N)=O)NC(=O)[C@H](C)NC(=O)[C@H](CCC(N)=O)NC(=O)[C@H](CCCN)NC(=O)[C@H](CC(=O)O)NC(=O)[C@H](CC(C)C)NC(=O)[C@](C)(CC(C)C)NC(=O)[C@@H](NC(=O)C(C)(C)NC(=O)[C@H](Cc1ccncc1)NC(=O)[C@H](CC(=O)O)NC(=O)[C@H](CO)NC(=O)[C@@H](NC(=O)[C@](C)(Cc1ccccc1F)NC(=O)[C@@H](NC(=O)CNC(=O)[C@H](CCC(=O)O)NC(=O)C(C)(C)NC(=O)[C@@H](N)Cc1ccc(O)cc1)[C@@H](C)O)[C@@H](C)O)[C@@H](C)CC)[C@@H](C)CC)C(=O)N[C@@H](CCCCNC(=O)COCCOCCNC(=O)CC[C@H](NC(=O)COCCOCCNC(=O)CC[C@H](NC(=O)CCCCCCCCCCCCC(=O)O)C(=O)O)C(=O)O)C(=O)NCC(=O)NCC(=O)N1CCC[C@H]1C(=O)N[C@@H](CO)C(=O)N[C@@H](CO)C(=O)NCC(=O)N[C@@H](C)C(=O)N1CCC[C@H]1C(=O)N1CCC[C@H]1C(=O)N1CCC[C@H]1C(=O)N[C@@H](CO)C(N)=O [Example 484] | 0.268 | 0.0296 | 0.0136 | > 9950 | > 9950 | – | 118 | 0.17 | 91.3 | 0.453 | –
3 | CC[C@H](C)[C@H](NC(=O)[C@H](CC(C)C)NC(=O)[C@](C)(Cc1ccc(O)cc1)NC(=O)[C@H](CCCCNC(=O)COCCOCCNC(=O)CC[C@H](NC(=O)CC[C@H](NC(=O)CC[C@H](NC(=O)CCCCCCCCCCCCC(=O)O)C(=O)O)C(=O)O)C(=O)O)NC(=O)[C@@H](NC(=O)[C@H](Cc1ccccc1)NC(=O)[C@H](CCCN)NC(=O)C(C)(C)NC(=O)[C@H](CCC(N)=O)NC(=O)[C@H](C)NC(=O)[C@H](CCC(N)=O)NC(=O)[C@H](CCCN)NC(=O)[C@H](CC(=O)O)NC(=O)[C@H](CC(C)C)NC(=O)[C@](C)(CC(C)C)NC(=O)[C@@H](NC(=O)C(C)(C)NC(=O)[C@H](Cc1ccncc1)NC(=O)[C@H](CC(=O)O)NC(=O)[C@H](CO)NC(=O)[C@@H](NC(=O)[C@](C)(Cc1ccccc1F)NC(=O)[C@@H](NC(=O)CNC(=O)[C@H](CCC(=O)O)NC(=O)C(C)(C)NC(=O)[C@@H](N)Cc1ccc(O)cc1)[C@@H](C)O)[C@@H](C)O)[C@@H](C)CC)[C@@H](C)CC)C(=O)N[C@@H](CCCCNC(=O)COCCOCCNC(=O)CC[C@H](NC(=O)CC[C@H](NC(=O)CC[C@H](NC(=O)CCCCCCCCCCCCC(=O)O)C(=O)O)C(=O)O)C(=O)O)C(=O)NCC(=O)NCC(=O)N1CCC[C@H]1C(=O)N[C@@H](CO)C(=O)N[C@@H](CO)C(=O)NCC(=O)N[C@@H](C)C(=O)N1CCC[C@H]1C(=O)N1CCC[C@H]1C(=O)N1CCC[C@H]1C(=O)N[C@@H](CO)C(N)=O [Example 486] | 0.299 | 0.046 | 0.0143 | > 9950 | > 9950 | – | – | 0.166 | 88.2 | – | 94.1
4 | CC[C@H](C)[C@H](NC(=O)[C@H](CC(C)C)NC(=O)[C@](C)(Cc1ccc(O)cc1)NC(=O)[C@H](CCCCNC(=O)COCCOCCNC(=O)COCCOCCNC(=O)CC[C@H](NC(=O)CCCCCCCCCCCCC(=O)O)C(=O)O)NC(=O)[C@@H](NC(=O)[C@H](Cc1ccccc1)NC(=O)[C@H](CCCN)NC(=O)C(C)(C)NC(=O)[C@H](CCC(N)=O)NC(=O)[C@H](C)NC(=O)[C@H](CCC(N)=O)NC(=O)[C@H](CCCN)NC(=O)[C@H](CC(=O)O)NC(=O)[C@H](CC(C)C)NC(=O)[C@](C)(CC(C)C)NC(=O)[C@@H](NC(=O)[C@H](CO)NC(=O)[C@H](CCc1ccc(O)cc1)NC(=O)[C@H](CC(=O)O)NC(=O)[C@H](CO)NC(=O)[C@@H](NC(=O)[C@](C)(Cc1ccccc1F)NC(=O)[C@@H](NC(=O)CNC(=O)[C@H](CCC(=O)O)NC(=O)C(C)(C)NC(=O)[C@@H](N)Cc1ccc(O)cc1)[C@@H](C)O)[C@@H](C)O)[C@@H](C)CC)[C@@H](C)CC)C(=O)N[C@@H](CCCCNC(=O)COCCOCCNC(=O)COCCOCCNC(=O)CC[C@H](NC(=O)CCCCCCCCCCCCC(=O)O)C(=O)O)C(=O)NCC(=O)NCC(=O)N1CCC[C@H]1C(=O)N[C@@H](CO)C(=O)N[C@@H](CO)C(=O)NCC(=O)N[C@@H](C)C(=O)N1CCC[C@H]1C(=O)N1CCC[C@H]1C(=O)N1CCC[C@H]1C(=O)N[C@@H](CO)C(N)=O [Example 491] | 0.182 | 0.0301 | 0.0148 | > 9950 | > 9950 | 105 | 119 | 0.148 | 87.5 | – | 100
